Like-named read-outs stand apart in the source and are kept apart here. One block for each substance: values may come before it. Where no end group is shown, it is not given here. [ ]: non-standard residue; d: D form. pT = C[C@@H](OP(=O)(O)O)[C@H](N)C(=O)O; pS = N[C@@H](COP(=O)(O)O)C(=O)O
What was measured:
[1] = target: Pin1 (Homo sapiens, UniProt Q13526); experiment: ELISA peptide binding to Pin1; conditions: for Binding (OD@405 nm), tau peptides: Pin1; for Binding (OD@405 nm), Amyloid Precursor Protein Peptide: protein not printed in these lines, text: Pin1 WW-domain
Chain of Pin1 (Q13526 whole entry): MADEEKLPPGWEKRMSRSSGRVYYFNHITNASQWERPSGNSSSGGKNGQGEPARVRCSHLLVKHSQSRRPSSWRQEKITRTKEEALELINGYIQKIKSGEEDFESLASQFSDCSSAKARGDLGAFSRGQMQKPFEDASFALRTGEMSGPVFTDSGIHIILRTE

[2] = target: WFYpSPFLE (Pintide); experiment: Fluorescence anisotropy (polarization) binding to fluorescein-labeled phosphorylated Pintide analogue
Text: To determine the affinity of Pin1, and its WW or PPIase domain for phosphopeptides, peptides were labeled with fluorescein and their interactions with Pin1 measured using quantitative fluorescence anisotrophy. To prevent nonspecific labeling, a Pintide analogue (WFYpSPFLE) SEQ ID NO: 9 was used, which binds Pin1 with a high affinity based on the peptide library screen as described by (Lu, K. P. et al., U.S. Ser. No. 60/058,164 (1997), the teachings of which are incorporated herein in their entirety.
(§1) Pintide and its nonphosphorylated counterpart were synthesized and incubated with GST-Pin1 or the GST-WW-domain of Pin1 in a binding buffer, using established procedures (Shen, M. et al., Genes & Dev 12:706 (1998)). After a 1 hr incubation, mitotic HeLa cell extracts were added and subjected to GST pull down experiments, followed by immunoblotting analysis using the MPM-2 antibody. To obtain semi-quantitative data, films of immunoblots were scanned at the region of 55 kDa, the major Pin1-binding protein, and data analyzed using ImageQuan (ScanJet II CX). The peptide binding constants were measured using a fluorescence polarization assay (Jiskoot, W. et al., Anal Biochem 196:421 (1991)). Peptides were fluorescein labeled at the N-terminus using the Fluorescein Amine Labeling Kit (Pan Vera Corp.) and purified by TLC according to the manufacturer's […]. To prevent nonspecific labeling, a Pintide analogue (WFYpSPFLE) SEQ ID NO: 8 and the nonphosphorylated control were used. Various concentrations of Pin1 and its mutant proteins were incubated with 0.1 μM of the labeled peptides in a binding buffer containing 50 mM HEPES, pH 7.4, 100 mM NaCl, 2% glycerol. Fluorescence polarization values were obtained using a Pan Vera Beacon 2000 system, as described by the manufacturer.

[3] = target: WFYSPFLE; experiment: Fluorescence anisotropy binding to fluorescein-labeled nonphosphorylated control peptide; conditions: nonphosphorylated peptide
[4] = test system: phosphorylated tau; experiment: GST-Pin1 pulldown of tau; type: binding; conditions: AD brain extracts, PHFs or age-matched normal brain extracts
Chain of phosphorylated tau (P10636 45-216 isoform P10636-2 limits assumed): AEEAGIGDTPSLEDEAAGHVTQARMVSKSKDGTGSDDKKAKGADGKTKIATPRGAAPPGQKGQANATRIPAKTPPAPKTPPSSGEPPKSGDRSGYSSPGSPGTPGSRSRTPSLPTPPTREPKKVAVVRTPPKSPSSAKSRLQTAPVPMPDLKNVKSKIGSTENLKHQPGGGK
Text: Pin1 binds and regulates the function of a defined subset of mitotic phosphoproteins by interacting with conserved phosphorylated Ser/Thr-Pro motifs that are also recognized by MPM-2, a mitosis-specific, phosphorylation-dependent monoclonal antibody (mAb) (Yaffe, M. B. et al., Science 278:1957-1960 (1997); Shen, M. et al., Genes Dev. 12:706-720 (1 998)). Tau is an MPM-2 antigen phosphorylated on multiple Ser/Thr-Pro motifs during mitosis (Illenberger, S. et al., Mol Biol Cell 9:1495-1512 (1998)). Experiments were undertaken to determine whether Pin1 binds tau. Tau isoform was either synthesized by in vitro transcription and translation in the presence of ^35S-Met or produced in bacteria as an N-terminal His-tagged protein, followed by purification using NTA-Ni columns (Yaffe, M. B. et al., Science 278:1957-1960 (1997); Shen, M. et al., Genes Dev. 12:706-720 (1998)). To generate interphase- and mitosis-specific phosphorylated form of tau, tau was incubated with Xenopus interphase and mitotic extracts, respectively (Shen, M. et al., Genes Dev. 12:706-720 (1998)). To prepare Cdc2 phosphorylated tau, purified recombinant tau was incubated with purified cyclin B/Cdc2 (UBI) for 6 to 12 hr at room temperature in a buffer containing 500 μM cold ATP, plus trace [^32P]-ATP in some experiments, (Vincent, I. et al., J Neurosci 17:3588-3598 (1997)).
Pin1 interactions with tau in AD brains were examined using a GST-Pin1 pulldown assay (Shen, M. et al., Genes Dev. 12:706-720 (1998)). Glutathione beads containing GST or GST-Pin1 were incubated with normal or AD brain extracts, or PHFs purified (Vincent, I. J. and Davies, P. Proc Natl Acad Sci USA 89:2878-2882 (1992)), and proteins associated with the beads were subjected to immunoblotting analysis using CP27, which recognizes all forms of tau. Recombinant and mutant Pin1 proteins were produced as N-terminal GST or His-tagged fusion proteins (Shen, M. et al., Genes Dev. 12:706-720 (1998)). PHFs were purified by immunoaffinity chromatography (Vincent, I. J. and Davies, P. Proc Natl Acad Sci USA 89:2878-2882 (1992)).
To determine whether Pin1 interacts with pT231-tau, GST-Pin1 beads were used to isolate tau from AD brain extracts or PHFs and T231 phosphorylation detected using CP9. Tau isolated by Pin1 beads was strongly immunoreactive with CP9. […] Thus, Pin1 binds pT231-tau through its WW-domain.

[5] = test system: MPM-2 antigens (mitotic phosphoproteins) of mitotic HeLa cell extracts; experiment: GST pulldown from mitotic HeLa cell extracts, MPM-2 immunoblotting (phosphoprotein-binding activity); conditions: for Phosphoprotein binding activity: GST-fusion proteins with mitotic extracts, MPM2 antibody; for binding to mitotic phosphoproteins / MPM-2 antigens (in words): mitotic HeLa cell extracts
Experimental: GST-fusion proteins containing the WW-domain, PPIase-domain or the entire Pin 1 protein were prepared and incubated with interphase (G1/S arrested; Control) or dividing (M phase) HeLa cell extracts using well-known procedures (Lu, K. P., et al., Nature 380:544 (1996); (Shen, M., et al., Genes & Devl. 12:706 (1998)). Briefly, HeLa cells were arrested at the G1/S boundary or mitosis by incubation with thymidine and aphidicolin or nocodazole for 16 h, respectively. The cells were lysed and supernatants incubated with 10 μl of agarose beads containing GST-Pin1; GST-WW-domain of Pin1; GST-PPIase domain of Pin1; or control GST for 2 h at 4° C. The phosphorylated precipitated proteins were washed 5 times in buffer containing 1% Triton X-100 before subjecting to immunoblotting analysis using MPM-2 antibody, as described previously (Yaffe, M. B. et al., Science 278:1957 (1997); Schukowski, et al., Biochemistry 37:5566 (1998); Shen, M. et al., Genes & Dev 12:706 (1998)). MPM-2 recognizes a subset of mitotic phosphoproteins including Pin1-binding proteins such as cdc25.
as §1
To examine the effect of Pin1 phosphorylation on Pin1 binding to ligands, Pin1 and Pin1 mutant proteins were incubated with the catalytic subunit of PKA and PKC (a mixture of α, β and γ, UBI) in a kinase reaction buffer containing 500 μM cold ATP at 30° C. for 15 min (Lu, K. P. et al., Anal. Biochem. 196:421 (1991)). The reactions were stopped by adding SDS sample buffer and reaction products separated on SDS-gels, followed by autoradiography. Pin1 proteins were isolated and used to bind MPM-2 antigens from mitotic extracts from HeLa cells, as previously described (Shen, M., et al., Genes & Dev 12:706 (1998)). Experiments were also performed with PKA and PKC, casein kinase, cyclin B/Cdc2 and SRPK1 kinases.

[6] = test system: peptide substrate; experiment: PPIase activity assay with peptide substrate; type: biochemical; conditions: relative to wild-type protein defined as 100%
[7] = test system: Pin1 and its WW-domain; experiment: Peptide competition of Pin1 / WW-domain binding to MPM-2 antigens of mitotic extracts; set-up: species or system human; conditions: for competition for phosphoprotein binding (in words): 0, 25, 50, 125, 250, 500 μM peptide
Chain of Pin1 and its WW-domain (Q13526 1-54 limits assumed): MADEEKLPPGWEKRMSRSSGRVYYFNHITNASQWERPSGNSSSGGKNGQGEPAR
Experimental: To examine the ability of a phosphopeptide to compete with phosphoproteins for binding to the WW-domain, the Pin1 binding phosphopeptide Pintide (WFYpSPRLKK, SEQ ID NO: 13) (Lu, K. P. et al., U.S. Ser. No. 60/058,164 (1997)) was used in competition assays. A nonphosphorylated counterpart of Pintide ([…], SEQ ID NO: 14) (C-Pintide) was used as a control.
as §1

[8] = high affinity binding site, read-out: WFYpSPFLE Kd(μM) High affinity
[9] = low affinity binding site, read-out: WFYpSPFLE Kd(μM) Low affinity
[10] = fluorescein labeled Pintide, high affinity pSer-binding site in the WW-domain, read-out: Kd for Pintide
[11] = competition with MPM2 antigens of mitotic extracts

Substance: GST-Pin1: GST-fusion protein containing the entire Pin1 protein
- Kd [2, 8]: 1.2 µM
- Kd [2, 9]: 13 µM
- WFYSPFLE Kd [3]: Not binding
- binding to tau of brain extracts [4]: bound tau present in AD brain extracts or PHFs

Substance: GYSSPGSPGTPGSR (also: phosphoserine, place not given here) [pS-202]
- Binding (OD@405 nm), tau peptides [1]: 0.08 OD@405 nm

Substance: KEVDAAVTPEERHLS [T-668]
- Binding (OD@405 nm), Amyloid Precursor Protein Peptide [1]: 0.00 OD@405 nm

Substance: KVAVVRTPPKSPS [T-231]
- Binding (OD@405 nm), tau peptides [1]: 0.00 OD@405 nm

Substance: Pin1^R14A: Pin1 with substitution of Arg-14 with Ala
- Kd [2, 10]: 2 µM
- Kd [2, 8]: 2 µM
- Kd [2, 9]: 13.5 µM
- Phosphoprotein binding activity [5]: + (binding was detected)
- binding to mitotic phosphoproteins / MPM-2 antigens (in words) [5]: did not appear to cause a significant change
- PPlase Activity (%) [6]: 92%

Substance: Pin1^S16A: Pin1 with Ser-16 substituted with Ala
- Kd [2, 10]: 1.2 µM
- Kd [2, 8]: 1.2 µM
- Kd [2, 9]: 10.5 µM
- Phosphoprotein binding activity [5]: + (binding was detected)
- binding to mitotic phosphoproteins / MPM-2 antigens (in words) [5]: interacted with all Pin1 ligands
- effect of phosphorylation by PKA on interaction with MPM2 antigens ([5]; protein phosphorylated by PKA before binding): not affected by PKA phosphorylation
- PPlase Activity (%) [6]: 96%

Substance: Pin1^S18E: Pin1 with Ser-18 mutated to Glu
- Kd [2, 8]: 1 µM
- Kd [2, 9]: 12 µM
- Phosphoprotein binding activity [5]: + (binding was detected)
- binding to mitotic phosphoproteins / MPM-2 antigens (in words) [5]: did not affect the ability of Pin1 to bind phosphoproteins
- PPlase Activity (%) [6]: 98%

Substance: Pin1^Y23F: Pin1 mutant, Tyr-23 replaced by Phe
- Kd [2, 10]: 5 µM
- PPlase Activity (%) [6]: 94%

Substance: SRSRTPSLPTPPT (also: phosphoserine, place not given here) [pS-214]
- Binding (OD@405 nm), tau peptides [1]: 0.00 OD@405 nm

Substance: VQSKIGSLDNITH (also: phosphoserine, place not given here) [pS-356]
- Binding (OD@405 nm), tau peptides [1]: 0.00 OD@405 nm

Substance: VRTPPKSPSSAKSR (also: phosphoserine, place not given here) [pS-235]
- Binding (OD@405 nm), tau peptides [1]: 0.11 OD@405 nm

Substance: WFYSPRLKK (not fully specified) [C-Pintide, nonphosphorylated counterpart of Pintide, control, reference compound]
- competition for phosphoprotein binding (in words) [7]: not with the nonphosphorylated peptide

The next lines start with results.

- Binding (OD@405 nm), tau peptides [1]: 0.00 OD@405 nm
Substance: DAGLKESPLQTPTE (DAGLKE[pS]PLQTPTE) [pS-46]

- Binding (OD@405 nm), tau peptides [1]: 0.00 OD@405 nm
Substance: GSLDNITHVPGGG (GSLDNI[pT]HVPGGG) [pT-361]

- Binding (OD@405 nm), Amyloid Precursor Protein Peptide [1]: 1.81 OD@405 nm
Substance: KEVDAAVTPEERHLS [pT-668] (KEVDAAV[pT]PEERHLS)

- Binding (OD@405 nm), tau peptides [1]: 0.00 OD@405 nm
Substance: NVSSTGSIDMVDS (also: phosphoserine, place not given here) [pS-416]

- Binding (OD@405 nm), tau peptides [1]: 0.02 OD@405 nm
Substance: PRHLSNVSSTGSIDMV [pS-412] (PRHLSNV[pS]STGSIDMV)

- Binding (OD@405 nm), tau peptides [1]: 0.00 OD@405 nm
Substance: PRHLSNVSSTGSIDMV [pS-413] (PRHLSNVS[pS]TGSIDMV)

- Binding (OD@405 nm), tau peptides [1]: 0.00 OD@405 nm
Substance: SIDMVDSPQLATL (also: phosphorylated Ser, place not given here) [pS-422]

- Binding (OD@405 nm), tau peptides [1]: 0.00 OD@405 nm
Substance: TRIPAKTPPAPKT (also: phosphorylated Thr, place not given here) [pT-175]

- Binding (OD@405 nm), tau peptides [1]: 0.00 OD@405 nm
Substance: TSPRHLSNVSSTG (also: phosphoserine, place not given here) [pS-409]

- peptide concentration with complete competition [7, 11]: 250 to 500 µM
- peptide concentration with significant competition [7, 11]: 50 µM
Substance: WFYpSPRLKK (WFY[pS]PRLKK) [Pintide]
- competition for phosphoprotein binding (in words) [7]: significantly reduced in a concentration dependent manner
